Values quoted from earlier work in patent US10927113B2, “Process for preparing purine derivatives” (Cyclacel Limited, priority 2017, dated 2021).

Legend:
CDK = details: background statement referring to WO 2008/122767
[1] = system: a range of different cell lines; details: background statement

In the case of `CC[C@H](Nc1nc(NCc2cnc(C)cc2C)c2ncn(C(C)C)c2n1)[C@@H](C)O` [Compound [1]], the CDK inhibitory activity (CDK) is listed as “potent CDK inhibitory activity” and the “potency in cellular toxicity studies” value [1] is listed as “surprisingly high potency”.
